Laboratory results taken from US10688200B2, “Urea-based prostate specific membrane antigen (PSMA) inhibitors for imaging and therapy” (Five Eleven Pharma Inc., priority 2015, dated 2020).

Assays:
[1] = Biodistribution of radiotracers in normal mice; type: in vivo, mouse; conditions: normal male mice
Procedure, shortened: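 Male CD-1 mice received 35 μCi [^68Ga] radiotracer (0.2 nmole ligand) by tail vein. Four mice per time point sacrificed at 2, 30, 60 and 120 min p.i.; organs and blood weighed and gamma counted. %ID/g calculated against a standard dilution of the dose, decay-corrected.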

[2] = tested on: PSMA expressing LNCaP cells; experiment: Cell uptake comparisons in LNCaP cells (FIG. 1); type: cell-based, human; conditions: 1 hr at 37° C.
Method: Cell uptake studies were performed using PSMA expressing LNCaP cells. Cells were grown in 6 well plates for 2 days. After incubation with ^68Ga-labeled ligands for 1 hr at 37° C., media were removed. After washing twice with 3 mL PBS buffer, cells were lysed with 0.1 N NaOH. Lysed cells were wiped with filter paper and radioactivity in filter paper was measured with a gamma counter.
The LNCaP cells over express PSMA receptor binding sites, the level of binding, % uptake/well, was an indicator of PSMA binding, the higher the better. [^68Ga]1a, a known PSMA imaging agent (PSMA-11), was used as a control.

PSMA [3] = biological target: T1, PSMA (Homo sapiens, UniProt Q04609); experiment: In vitro binding signals of 68Ga labeled ligands in LNCaP tumor homogenates; conditions: Ga-68 radiolabeled ligands; for Nonspecific binding (NSB): with 1a (PSMA11) 10 μM
T1 construct: 100 μL of freshly harvested PSMA cells; endogenous in cells; host or cells: 'PSMA cells' in the method
T1 sequence (Q04609 whole entry): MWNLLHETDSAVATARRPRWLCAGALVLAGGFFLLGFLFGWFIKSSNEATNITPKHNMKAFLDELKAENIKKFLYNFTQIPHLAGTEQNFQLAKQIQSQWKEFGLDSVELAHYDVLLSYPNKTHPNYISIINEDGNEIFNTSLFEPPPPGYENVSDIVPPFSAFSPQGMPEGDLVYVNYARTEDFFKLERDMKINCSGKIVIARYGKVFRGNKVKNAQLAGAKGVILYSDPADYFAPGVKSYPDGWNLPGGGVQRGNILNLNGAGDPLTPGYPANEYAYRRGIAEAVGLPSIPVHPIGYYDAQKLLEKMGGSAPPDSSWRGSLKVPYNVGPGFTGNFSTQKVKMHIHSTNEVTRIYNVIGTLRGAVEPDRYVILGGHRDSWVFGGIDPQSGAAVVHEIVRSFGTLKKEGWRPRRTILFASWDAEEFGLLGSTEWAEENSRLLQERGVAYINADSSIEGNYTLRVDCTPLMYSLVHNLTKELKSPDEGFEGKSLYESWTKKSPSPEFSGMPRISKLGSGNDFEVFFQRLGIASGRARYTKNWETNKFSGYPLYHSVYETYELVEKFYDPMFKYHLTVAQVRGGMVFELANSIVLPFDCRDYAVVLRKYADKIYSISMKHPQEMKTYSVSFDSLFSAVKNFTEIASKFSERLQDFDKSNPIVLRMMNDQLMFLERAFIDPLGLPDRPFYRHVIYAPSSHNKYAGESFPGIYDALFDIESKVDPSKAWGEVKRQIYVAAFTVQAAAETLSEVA

PSMA [4] = experiment: In vitro autoradiography of LNCaP tumor and mouse kidney sections; type: binding; conditions: incubation with 2-PMPA
Method: LNCaP tumor and mouse kidneys were cut at 20 μm on a cryostat, thaw-mounted onto slides. Slides are incubated with radiotracers (3 μCi/ml) in PBS for 30 min and washed with PBS twice for 3 min each. After drying, the slides put into a plate for exposure for 30 min. Images were acquired with Typhoon FLA 7000 (GE Healthcare).
To validate the PSMA binding, in vitro autoradiography studies using LNCaP tumor and mouse kidney sections were carried out.
FIGS. 2A-2K show in vitro autoradiography of LNCaP tumor (left side) and mouse kidney sections (right side). […] These new PSMA target compounds, display high uptake in the sections. [^68Ga]1a (PSMA-11) was used as a control.

Molecule: O=C(O)CC[C@H](NC(=O)N[C@@H](CCCCNC(=O)CCCCCNC(=O)CCc1ccc2c(n1)C[N+]13CC[N+]45CC(=O)[O][68Ga-3]14([O]C(=O)C3)([O]2)[O]c1ccc(CCC(=O)NCCCCCC(=O)NCCCC[C@H](NC(=O)N[C@@H](CCC(=O)O)C(=O)O)C(=O)O)nc1C5)C(=O)O)C(=O)O (some centres unmarked) [[^68Ga]3]
- Biodistribution: Blood ([1]; 2 min): 8.94 ± 1.57 % dose/g
- Biodistribution: Bone ([1]; 2 min): 3.53 ± 0.96 % dose/g
- Biodistribution: Brain ([1]; 2 min): 0.33 ± 0.06 % dose/g
- Biodistribution: Heart ([1]; 2 min): 4.34 ± 1.15 % dose/g
- Biodistribution: Kidney ([1]; 2 min): 56.2 ± 6.53 % dose/g
- Biodistribution: Liver ([1]; 2 min): 3.42 ± 0.11 % dose/g
- Biodistribution: Lung ([1]; 2 min): 7.49 ± 2.71 % dose/g
- Biodistribution: Muscle ([1]; 2 min): 2.02 ± 0.74 % dose/g
- Biodistribution: Pancreas ([1]; 2 min): 2.89 ± 0.61 % dose/g
- Biodistribution: Skin ([1]; 2 min): 2.63 ± 0.48 % dose/g
- Biodistribution: Spleen ([1]; 2 min): 5.14 ± 1.49 % dose/g
- Biodistribution: Blood ([1]; 30 min): 3.19 ± 0.72 % dose/g
- Biodistribution: Bone ([1]; 30 min): 1.70 ± 0.20 % dose/g
- Biodistribution: Brain ([1]; 30 min): 0.09 ± 0.01 % dose/g
- Biodistribution: Heart ([1]; 30 min): 0.93 ± 0.22 % dose/g
- Biodistribution: Kidney ([1]; 30 min): 94.4 ± 13.7 % dose/g
- Biodistribution: Liver ([1]; 30 min): 1.71 ± 0.05 % dose/g
- Biodistribution: Lung ([1]; 30 min): 1.38 ± 0.17 % dose/g
- Biodistribution: Muscle ([1]; 30 min): 1.53 ± 0.68 % dose/g
- Biodistribution: Pancreas ([1]; 30 min): 1.36 ± 0.32 % dose/g
- Biodistribution: Skin ([1]; 30 min): 1.48 ± 0.34 % dose/g
- Biodistribution: Spleen ([1]; 30 min): 4.35 ± 0.37 % dose/g
- Biodistribution: Blood ([1]; 60 min): 1.52 ± 0.44 % dose/g
- Biodistribution: Bone ([1]; 60 min): 2.34 ± 1.08 % dose/g
- Biodistribution: Brain ([1]; 60 min): 0.06 ± 0.04 % dose/g
- Biodistribution: Heart ([1]; 60 min): 0.82 ± 0.22 % dose/g
- Biodistribution: Kidney ([1]; 60 min): 61.3 ± 5.97 % dose/g
- Biodistribution: Liver ([1]; 60 min): 1.81 ± 0.14 % dose/g
- Biodistribution: Lung ([1]; 60 min): 1.29 ± 0.31 % dose/g
- Biodistribution: Muscle ([1]; 60 min): 1.01 ± 0.29 % dose/g
- Biodistribution: Pancreas ([1]; 60 min): 1.34 ± 0.45 % dose/g
- Biodistribution: Skin ([1]; 60 min): 2.35 ± 0.34 % dose/g
- Biodistribution: Spleen ([1]; 60 min): 1.75 ± 0.17 % dose/g
- Biodistribution: Blood ([1]; 120 min): 1.00 ± 0.30 % dose/g
- Biodistribution: Bone ([1]; 120 min): 3.56 ± 1.08 % dose/g
- Biodistribution: Brain ([1]; 120 min): 0.05 ± 0.02 % dose/g
- Biodistribution: Heart ([1]; 120 min): 0.84 ± 0.20 % dose/g
- Biodistribution: Kidney ([1]; 120 min): 30.3 ± 8.87 % dose/g
- Biodistribution: Liver ([1]; 120 min): 2.00 ± 0.20 % dose/g
- Biodistribution: Lung ([1]; 120 min): 0.97 ± 0.12 % dose/g
- Biodistribution: Muscle ([1]; 120 min): 1.13 ± 0.50 % dose/g
- Biodistribution: Pancreas ([1]; 120 min): 1.21 ± 0.19 % dose/g
- Biodistribution: Skin ([1]; 120 min): 1.22 ± 0.20 % dose/g
- Biodistribution: Spleen ([1]; 120 min): 1.71 ± 0.56 % dose/g
- Cell uptake (% uptake/well), in words [2]: low cell uptakes
- Specific binding (SB) SB = TB − NSB (PSMA [3]): lower specific binding
- Nonspecific binding (NSB) (PSMA [3]): high nonspecific binding

Molecule: O=C(O)CCc1ccc2c(n1)C[N+]13CC[N+]45CC(=O)[O][68Ga-3]14([O]C(=O)C3)([O]2)[O]c1ccc(CCC(=O)NCCCCCC(=O)NCCCC[C@H](NC(=O)N[C@@H](CCC(=O)O)C(=O)O)C(=O)O)nc1C5 (some centres unmarked) [[^68Ga]2]
- Biodistribution: Blood ([1]; 2 min): 8.92 ± 0.75 % dose/g
- Biodistribution: Bone ([1]; 2 min): 2.18 ± 0.08 % dose/g
- Biodistribution: Brain ([1]; 2 min): 0.24 ± 0.02 % dose/g
- Biodistribution: Heart ([1]; 2 min): 3.40 ± 0.45 % dose/g
- Biodistribution: Kidney ([1]; 2 min): 56.4 ± 8.05 % dose/g
- Biodistribution: Liver ([1]; 2 min): 2.01 ± 0.08 % dose/g
- Biodistribution: Lung ([1]; 2 min): 5.18 ± 0.52 % dose/g
- Biodistribution: Muscle ([1]; 2 min): 2.00 ± 0.25 % dose/g
- Biodistribution: Pancreas ([1]; 2 min): 1.85 ± 0.17 % dose/g
- Biodistribution: Skin ([1]; 2 min): 3.07 ± 0.05 % dose/g
- Biodistribution: Spleen ([1]; 2 min): 3.57 ± 0.20 % dose/g
- Biodistribution: Blood ([1]; 30 min): 1.18 ± 0.15 % dose/g
- Biodistribution: Bone ([1]; 30 min): 0.48 ± 0.02 % dose/g
- Biodistribution: Brain ([1]; 30 min): 0.05 ± 0.00 % dose/g
- Biodistribution: Heart ([1]; 30 min): 0.51 ± 0.03 % dose/g
- Biodistribution: Kidney ([1]; 30 min): 108 ± 8.66 % dose/g
- Biodistribution: Liver ([1]; 30 min): 0.33 ± 0.01 % dose/g
- Biodistribution: Lung ([1]; 30 min): 1.07 ± 0.12 % dose/g
- Biodistribution: Muscle ([1]; 30 min): 0.46 ± 0.03 % dose/g
- Biodistribution: Pancreas ([1]; 30 min): 0.76 ± 0.12 % dose/g
- Biodistribution: Skin ([1]; 30 min): 0.88 ± 0.08 % dose/g
- Biodistribution: Spleen ([1]; 30 min): 1.33 ± 0.08 % dose/g
- Biodistribution: Blood ([1]; 60 min): 0.89 ± 0.10 % dose/g
- Biodistribution: Bone ([1]; 60 min): 0.43 ± 0.01 % dose/g
- Biodistribution: Brain ([1]; 60 min): 0.03 ± 0.00 % dose/g
- Biodistribution: Heart ([1]; 60 min): 0.33 ± 0.02 % dose/g
- Biodistribution: Kidney ([1]; 60 min): 67.8 ± 15.57 % dose/g
- Biodistribution: Liver ([1]; 60 min): 0.25 ± 0.06 % dose/g
- Biodistribution: Lung ([1]; 60 min): 0.72 ± 0.16 % dose/g
- Biodistribution: Muscle ([1]; 60 min): 0.24 ± 0.01 % dose/g
- Biodistribution: Pancreas ([1]; 60 min): 0.44 ± 0.08 % dose/g
- Biodistribution: Skin ([1]; 60 min): 0.46 ± 0.10 % dose/g
- Biodistribution: Spleen ([1]; 60 min): 0.84 ± 0.24 % dose/g
- Biodistribution: Blood ([1]; 120 min): 0.78 ± 0.04 % dose/g
- Biodistribution: Bone ([1]; 120 min): 0.60 ± 0.03 % dose/g
- Biodistribution: Brain ([1]; 120 min): 0.03 ± 0.01 % dose/g
- Biodistribution: Heart ([1]; 120 min): 0.28 ± 0.02 % dose/g
- Biodistribution: Kidney ([1]; 120 min): 26.9 ± 6.13 % dose/g
- Biodistribution: Liver ([1]; 120 min): 0.22 ± 0.01 % dose/g
- Biodistribution: Lung ([1]; 120 min): 0.45 ± 0.01 % dose/g
- Biodistribution: Muscle ([1]; 120 min): 0.18 ± 0.01 % dose/g
- Biodistribution: Pancreas ([1]; 120 min): 0.30 ± 0.04 % dose/g
- Biodistribution: Skin ([1]; 120 min): 0.29 ± 0.03 % dose/g
- Biodistribution: Spleen ([1]; 120 min): 0.36 ± 0.04 % dose/g
- Cell uptake (% uptake/well), in words [2]: low cell uptakes
- Specific binding (SB) SB = TB − NSB (PSMA [3]): lower specific binding
- Nonspecific binding (NSB) (PSMA [3]): high nonspecific binding

Molecule: 2-(3-mercaptopropyl)pentane-dioic acid [Compound 2-PMPA]
- Blocking of radiotracer binding in autoradiography, in words (PSMA [4]): blocked radiotracers' binding to tumor and kidney
